Measured values: patent US10294230B2, “3,3-difluoropiperidine carbamate heterocyclic compounds as NR2B NMDA receptor antagonists” (Rugen Holdings (Cayman) Limited, priority 2015, dated 2019)

Experiments:
NR2B receptor = NR2B receptor (Rattus norvegicus (Rat), UniProt P35439+Q00960); assay: [3H] (E)-N1-(2-methoxybenzyl)-cinnamidine radioligand binding, rat brain membranes; settings: for displacement of [3H] (E)-N1-(2-methoxybenzyl)-cinnamidine at the NR2B receptor high affinity site: rat brain membranes
Experimental: (§1) This example describes NMDA receptor binding assays using two different radioligands, [^3H] […] An established binding assay using the non-selective NMDA receptor ligand [^3H] […] The binding assay method using the NR2B selective receptor ligand [^3H] […] This assay serves as a selective measure of NR2B receptor binding activity in native rat brain receptors. Briefly, the brains of Male Wistar rats were homogenized (Polytron) before centrifugation at 40,000×g for 15 minutes at 4° C. After 2 washes, the final pellet was homogenized and stored at −80° C. The protein concentration was determined by Bradford assay.
[^3H] […] Thus, using [^3H]
(§2) Test compounds were solubilized at 10 mM in DMSO. Then the dilutions were performed with a constant solvent concentration (1% DMSO) in the assay.
(§3) After incubation for 4.5 h at room temperature, the assays were filtered on GF/B filters pretreated with 0.3% (v/v) PEI with a Brandel system for [^3H] […] The experiment was performed in duplicate (n=2).

[1] = test system: haloperidol-induced catalepsy; assay: Haloperidol-Induced Catalepsy (HIC) Model; type: in vivo; settings: rats
Description: The Haloperidol-induced Catalepsy (HIC) model detects antipsychotic activity and the action of NR2B selective antagonists (Steece-Collier et al. Exp. Neurol. 163: 239, 2000) and was based on methods described by Chermat and Simon (J. Pharmacol., 6, 493-496, 1975). The capacity to induce catalepsy serves as an index of the liability of a test substance to induce extrapyramidal side-effects, in particular Parkinsonism. Antagonism of antipsychotic-induced catalepsy can thus serve to detect anti-Parkinson potential.
Rats were injected with haloperidol (1 mg/kg i.p.) and were examined for catalepsy at 30 minute intervals up to 360 minutes. Presence (+) or absence (−) of catalepsy was assessed by three procedures: 1) imposed crossing of the ipsilateral fore- and hind-limbs; 2) placing the animal in the Buddha position; 3) the tilting board, an automatic device that, 5 seconds after positioning the rat, displaces the rat from a horizontal to vertical position and back while it clings to a wire grid with its front paws. Akinesia and catalepsy were assessed depending on whether or not the animal moves before (akinesia) or during operation of the board (catalepsy).
The 4 scores were cumulated over time to give a global catalepsy score per animal. Six rats were studied per group. The test was performed blind (test substances versus vehicle). Test substances were evaluated at 1 or more doses, administered typically using 0.5% dimethylsulfoxide, 4% hydroxypropyl-b-cyclodextrin water as a vehicle p.o. 15 minutes before haloperidol (i.e. 45 minutes before the first measurement), and compared with a vehicle control group.
Amphetamine (8 mg/kg p.o.), administered 60 minutes before the test (i.e. 90 minutes before the first measurement), was used as reference substance. Data with the test substances were analyzed by comparing treated groups with vehicle control using Kruskal-Wallis Test followed by Mann-Whitney U tests at each time and for cumulated score. Data with the reference substance were analyzed using Mann-Whitney U tests.

human NR1/NR2A = human NR1/NR2A (Homo sapiens (Human), UniProt Q05586+Q12879); assay: NR2A antagonist activity, Fluo-4 calcium influx in HEK293 cells; type: cell-based; settings: Table 2.1, glutamate 100 μM, glycine 50 μM
Experimental: (§4) HEK293 cell lines stably expressing cloned human NR1/NR2B and NR1/NR2A, respectively, were established according to standard previously described methods (Hansen et al., Comb. Chem High Throughput Screen. 11:304, 2008). Activation of the NR2A or NR2B subtype of NMDA receptor with glutamate as an agonist and glycine co-agonist on these cells results in calcium influx, which can be monitored with fluorescent indicator Fluo-4.
(§5) For experiments, the cells were seeded onto poly-D-lysine-coated 96-well black plates with clear bottom (Corning) at a density of ˜50,000 cells/well. After overnight culture, the growth medium was removed from the wells and the cells were incubated at 37° C. for 60 min in Hanks buffer containing 4 μM fluo-4-AM (Invitrogen) and 0.1% bovine serum albumin (BSA). After dye-loading, the cells were washed three times with Hanks buffer and incubated for 10 min at room temperature with various concentrations of test compounds prepared in Hanks buffer with 0.1% BSA. The cell plates were placed onto FDSS pCell fluorescence reader (Hamamatsu). After 20 sec reading of background fluorescence, agonist glutamate at final 100 μM and co-agonist glycine at final 50 μM were added to the cells to activate the receptor, and the resulting fluorescence changes were recorded and quantified. Based on the changes in fluorescence intensity, the pharmacological effect of test compounds were analyzed and the IC50 values derived from a non-linear least squares fitting of the concentration-dependent response to a standard logistic equation using Prism (Graphpad, Inc): Amplitude=Max Amplitude/(1+(IC50/[antagonist])^n).

NMDA receptor = assay: [3H] MK-801 radioligand binding, rat brain membranes; settings: 2 nM [3H] MK-801
Experimental: as §1, §2, §3

[2] = test system: pentylenetetrazole (PTZ) induced convulsions; assay: Pentylenetetrazole (PTZ) Seizure Test; type: in vivo; settings: 10 mg/kg p.o., mesylate salt
Experimental: Rats, placed in individual macrolon cages (25×19×13 cm), were injected with pentylenetetrazole (PTZ) (100 mg/kg s.c.). The occurrence and latency of clonic and tonic convulsions and death were noted over a 30 minute period. 15 rats were studied per group. The test was performed blind. […]
Compounds were evaluated typically using 0.5% dimethylsulfoxide, 4% hydroxypropyl-b-cyclodextrin water as a vehicle at 1 or more doses (e.g., 1, 3 and 10 mg/kg), administered p.o. 30 minutes before PTZ, and compared with a vehicle control group. Diazepam (16 mg/kg p.o.), administered 60 minutes before PTZ, was used as reference substance. The experiment was performed over 2 separate sub-experiments with N=7 to 8 animals per group and per sub-experiment. Quantitative data (latencies) with the test substance was analyzed by comparing treated groups with vehicle control using Kruskal-Wallis test followed by Mann-Whitney U test. Quantitative data with the reference substance was analyzed using Mann-Whitney U test. Quantal data (frequencies) was analyzed by comparing treated groups with vehicle control using Fisher's Exact Probability tests (*=p<0.05; **=p<0.01; ***=p<0.001).

hERG channel = hERG channel (Homo sapiens (Human), UniProt Q12809); assay: hERG channel inhibition, whole cell patch clamp in HEK293 cells; type: cell-based; settings: 10 μM
CYP2D6 = CYP2D6 (Homo sapiens (Human), UniProt P10635); assay: CYP P450 enzyme inhibition, pooled human liver microsome; type: in vitro ADME; settings: 10 μM, pooled HLM, dextromethorphan 5 μM
human NR1/NR2B = human NR1/NR2B (Homo sapiens (Human), UniProt Q05586+Q13224); assay: NR2B antagonist activity, Fluo-4 calcium influx in HEK293 cells; type: cell-based
Experimental: as §4, §5

[3] = test system: electroconvulsive threshold (tonic convulsions); assay: Electroconvulsive Threshold Test (ECT); type: in vivo, rats; settings: rats, 3 and 10 mpk p.o., mesylate salt
Experimental: Test compound E1-8.2 was administered as the free base.
Rats were administered ECS (rectangular current: 0.6 ms pulse width, 1.5 s duration, 200 Hz) via earclip electrodes connected to a constant current shock generator (Ugo Basile: type 7801). Test compounds were administered by oral gavage (p.o.) 1 hour before the test at a dose volume of 5 mL/kg.
Treatment groups of 20 rats were exposed to ECS as follows: The first animal was exposed to 30 mA of ECS. […] (increases of 5 mA) until the first tonic convulsion was observed. Once the first tonic convulsion was observed, the intensity of ECS was decreased by 2 mA for the next animal and then decreased or increased by 2 mA from animal to animal depending on whether the previous animal convulsed or not. If the first animal did convulse (tonic convulsions) within 5 seconds, animal no2 is exposed to 25 mA, etc. . . . (decreases of 5 mA) until the absence of tonic convulsions was observed. At this point, the intensity of ECS was increased by 2 mA for the next animal and then decreased or increased by 2 mA from animal to animal depending on whether the previous animal convulsed or not. The minimum current intensity applied is 5 mA and the maximum 95 mA. The first 5 animals serve to approach threshold current and were not included in the analysis. The results are presented as the mean current intensity administered to the final 15 animals of a group. The test was performed blind. A positive percent change indicates an anticonvulsant effect. A negative percent change indicates a proconvulsant effect. The test substance was evaluated at 4 doses, typically using 0.5% dimethylsulfoxide, 4% hydroxypropyl-b-cyclodextrin water as a vehicle, and administered p.o. 60 minutes before ECS, and compared with a vehicle control group. Diazepam (16 mg/kg p.o.), administered under the same experimental conditions, was used as reference substance. The experiment included 6 groups. Data with the test substance was analyzed by comparing treated groups with vehicle control using one-way ANOVA followed by Dunnett's t tests.

[4] = Table 2.1, HEK293 human NR1/NR2B, glutamate 100 μM, glycine 50 μM

Sequence of hERG channel (Q12809 whole entry): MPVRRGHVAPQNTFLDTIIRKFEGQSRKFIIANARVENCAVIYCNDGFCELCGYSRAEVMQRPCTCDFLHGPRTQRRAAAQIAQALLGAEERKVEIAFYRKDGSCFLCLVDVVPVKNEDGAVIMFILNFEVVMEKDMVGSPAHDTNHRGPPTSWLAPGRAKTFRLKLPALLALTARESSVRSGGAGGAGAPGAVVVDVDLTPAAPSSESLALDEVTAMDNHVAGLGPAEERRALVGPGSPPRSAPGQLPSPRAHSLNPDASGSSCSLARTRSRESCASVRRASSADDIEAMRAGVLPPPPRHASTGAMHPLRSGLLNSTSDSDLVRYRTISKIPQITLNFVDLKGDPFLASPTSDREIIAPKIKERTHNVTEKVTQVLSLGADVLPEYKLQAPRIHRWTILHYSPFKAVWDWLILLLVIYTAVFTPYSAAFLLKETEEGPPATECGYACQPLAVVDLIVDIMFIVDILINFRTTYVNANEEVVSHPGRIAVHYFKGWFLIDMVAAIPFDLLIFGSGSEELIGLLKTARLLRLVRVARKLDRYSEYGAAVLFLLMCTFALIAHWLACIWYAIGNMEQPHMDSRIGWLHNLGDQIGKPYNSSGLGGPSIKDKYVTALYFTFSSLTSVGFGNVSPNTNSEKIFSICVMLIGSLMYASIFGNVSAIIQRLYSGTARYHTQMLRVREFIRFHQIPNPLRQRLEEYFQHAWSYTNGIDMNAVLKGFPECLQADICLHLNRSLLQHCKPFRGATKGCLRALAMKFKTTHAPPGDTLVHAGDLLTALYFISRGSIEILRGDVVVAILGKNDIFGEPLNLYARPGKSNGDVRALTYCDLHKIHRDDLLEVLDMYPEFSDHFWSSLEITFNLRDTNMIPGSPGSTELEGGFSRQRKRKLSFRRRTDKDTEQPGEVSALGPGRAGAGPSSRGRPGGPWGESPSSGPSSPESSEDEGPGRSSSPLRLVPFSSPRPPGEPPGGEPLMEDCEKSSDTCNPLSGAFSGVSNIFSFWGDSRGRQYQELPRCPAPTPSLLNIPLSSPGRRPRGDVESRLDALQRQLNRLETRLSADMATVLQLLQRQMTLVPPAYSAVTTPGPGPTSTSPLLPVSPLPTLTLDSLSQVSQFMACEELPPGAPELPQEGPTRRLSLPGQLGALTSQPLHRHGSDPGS
Sequence of CYP2D6 (P10635 whole entry): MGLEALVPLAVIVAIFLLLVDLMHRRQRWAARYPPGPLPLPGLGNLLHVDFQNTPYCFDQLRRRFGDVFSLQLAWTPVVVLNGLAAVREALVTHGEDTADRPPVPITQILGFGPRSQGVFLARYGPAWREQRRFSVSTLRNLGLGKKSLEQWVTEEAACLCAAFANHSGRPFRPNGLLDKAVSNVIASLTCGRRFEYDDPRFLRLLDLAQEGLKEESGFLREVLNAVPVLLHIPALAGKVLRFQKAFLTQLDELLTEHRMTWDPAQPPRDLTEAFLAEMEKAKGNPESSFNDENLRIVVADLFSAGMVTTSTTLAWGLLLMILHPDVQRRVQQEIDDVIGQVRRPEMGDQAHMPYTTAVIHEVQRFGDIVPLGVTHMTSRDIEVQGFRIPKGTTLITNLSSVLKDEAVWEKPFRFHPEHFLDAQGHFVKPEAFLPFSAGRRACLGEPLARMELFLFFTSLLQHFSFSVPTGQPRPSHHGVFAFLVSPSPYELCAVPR
Sequence of human NR1/NR2A (Q12879 23-1464, other chains not shown): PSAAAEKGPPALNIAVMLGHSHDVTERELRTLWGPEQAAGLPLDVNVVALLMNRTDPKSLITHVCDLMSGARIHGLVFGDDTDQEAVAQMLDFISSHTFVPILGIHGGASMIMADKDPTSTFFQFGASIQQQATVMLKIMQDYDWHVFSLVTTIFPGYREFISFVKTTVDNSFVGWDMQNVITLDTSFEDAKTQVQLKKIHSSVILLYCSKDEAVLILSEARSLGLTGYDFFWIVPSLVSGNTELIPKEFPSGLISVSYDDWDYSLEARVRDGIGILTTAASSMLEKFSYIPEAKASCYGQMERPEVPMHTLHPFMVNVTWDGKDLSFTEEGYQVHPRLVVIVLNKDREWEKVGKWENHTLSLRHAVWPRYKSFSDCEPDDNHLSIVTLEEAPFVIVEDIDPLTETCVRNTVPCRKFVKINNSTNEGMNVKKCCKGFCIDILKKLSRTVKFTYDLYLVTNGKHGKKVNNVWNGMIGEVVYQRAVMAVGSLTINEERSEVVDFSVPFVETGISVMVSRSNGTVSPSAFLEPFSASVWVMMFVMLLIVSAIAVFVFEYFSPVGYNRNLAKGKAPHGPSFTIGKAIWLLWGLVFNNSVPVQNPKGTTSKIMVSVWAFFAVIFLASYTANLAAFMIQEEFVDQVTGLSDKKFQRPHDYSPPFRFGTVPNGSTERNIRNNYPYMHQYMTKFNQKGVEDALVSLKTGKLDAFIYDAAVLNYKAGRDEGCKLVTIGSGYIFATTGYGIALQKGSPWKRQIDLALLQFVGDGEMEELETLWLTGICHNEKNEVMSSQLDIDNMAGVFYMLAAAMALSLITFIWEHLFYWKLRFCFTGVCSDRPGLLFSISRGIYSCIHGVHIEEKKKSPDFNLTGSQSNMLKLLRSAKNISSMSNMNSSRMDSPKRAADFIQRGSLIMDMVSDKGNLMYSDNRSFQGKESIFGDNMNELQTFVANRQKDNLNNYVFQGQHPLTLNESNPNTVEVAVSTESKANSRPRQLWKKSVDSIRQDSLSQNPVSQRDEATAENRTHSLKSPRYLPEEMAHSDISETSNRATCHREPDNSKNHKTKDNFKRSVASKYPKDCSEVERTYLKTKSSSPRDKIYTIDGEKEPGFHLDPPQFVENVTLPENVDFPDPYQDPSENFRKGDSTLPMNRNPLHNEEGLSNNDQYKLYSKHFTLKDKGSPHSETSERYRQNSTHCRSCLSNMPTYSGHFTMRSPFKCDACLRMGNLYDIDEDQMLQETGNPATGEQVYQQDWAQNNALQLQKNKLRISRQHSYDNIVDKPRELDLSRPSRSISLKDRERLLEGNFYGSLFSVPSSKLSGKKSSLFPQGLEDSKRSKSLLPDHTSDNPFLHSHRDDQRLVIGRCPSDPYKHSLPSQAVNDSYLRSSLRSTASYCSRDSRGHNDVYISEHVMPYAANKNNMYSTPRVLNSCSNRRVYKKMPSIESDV
Sequence of human NR1/NR2B (Q13224 27-1484, other chains not shown): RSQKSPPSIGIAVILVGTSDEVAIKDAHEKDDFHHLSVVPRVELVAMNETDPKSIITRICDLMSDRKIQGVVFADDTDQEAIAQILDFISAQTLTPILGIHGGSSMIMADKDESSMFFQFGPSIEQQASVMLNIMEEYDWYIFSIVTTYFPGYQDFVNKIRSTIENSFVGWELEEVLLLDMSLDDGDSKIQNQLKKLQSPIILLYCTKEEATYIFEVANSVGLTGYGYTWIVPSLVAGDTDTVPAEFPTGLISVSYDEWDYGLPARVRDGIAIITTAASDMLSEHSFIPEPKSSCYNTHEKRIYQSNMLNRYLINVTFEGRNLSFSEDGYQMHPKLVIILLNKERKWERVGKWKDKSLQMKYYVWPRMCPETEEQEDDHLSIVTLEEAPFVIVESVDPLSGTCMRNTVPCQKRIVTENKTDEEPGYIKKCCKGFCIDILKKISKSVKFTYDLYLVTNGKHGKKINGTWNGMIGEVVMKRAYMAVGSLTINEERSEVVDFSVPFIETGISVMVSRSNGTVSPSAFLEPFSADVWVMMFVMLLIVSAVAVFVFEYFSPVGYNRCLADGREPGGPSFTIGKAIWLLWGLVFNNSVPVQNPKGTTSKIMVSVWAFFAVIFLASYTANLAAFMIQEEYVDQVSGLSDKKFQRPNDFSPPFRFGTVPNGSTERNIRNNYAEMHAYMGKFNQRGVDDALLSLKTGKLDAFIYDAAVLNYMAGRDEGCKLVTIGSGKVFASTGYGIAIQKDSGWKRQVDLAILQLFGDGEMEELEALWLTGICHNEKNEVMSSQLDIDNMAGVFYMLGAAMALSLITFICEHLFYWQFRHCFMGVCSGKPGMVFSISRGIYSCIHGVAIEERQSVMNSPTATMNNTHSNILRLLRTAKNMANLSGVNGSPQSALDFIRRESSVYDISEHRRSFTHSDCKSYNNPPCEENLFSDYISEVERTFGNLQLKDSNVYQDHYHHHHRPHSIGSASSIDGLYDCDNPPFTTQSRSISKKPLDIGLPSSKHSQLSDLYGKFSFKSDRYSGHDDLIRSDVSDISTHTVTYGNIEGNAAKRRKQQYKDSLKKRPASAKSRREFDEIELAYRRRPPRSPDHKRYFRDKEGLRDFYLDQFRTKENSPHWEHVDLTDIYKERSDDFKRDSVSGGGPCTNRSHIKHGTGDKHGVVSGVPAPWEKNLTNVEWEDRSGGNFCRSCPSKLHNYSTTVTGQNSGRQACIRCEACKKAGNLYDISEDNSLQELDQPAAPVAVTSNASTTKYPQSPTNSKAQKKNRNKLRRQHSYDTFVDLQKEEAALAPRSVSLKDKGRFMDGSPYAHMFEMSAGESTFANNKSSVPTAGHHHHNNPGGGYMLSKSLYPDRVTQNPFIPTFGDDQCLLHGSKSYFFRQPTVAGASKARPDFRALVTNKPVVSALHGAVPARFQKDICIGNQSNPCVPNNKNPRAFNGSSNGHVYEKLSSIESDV

Row | displacement of [3H] (E)-N1-(2-methoxybenzyl)-cinnamidine at the NR2B receptor high affinity site (NR2B receptor) | IC50 (human NR1/NR2A) | partial effect on [3H] MK-801 binding (NMDA receptor) | CYP2D6 @ 10 μM (%) (CYP2D6) | IC50 (human NR1/NR2B; [4]) | IC50 (human NR1/NR2B; Table 2.2) | IC50 (human NR1/NR2B; Table 2.3) | Ki (NR2B receptor; read-out: Ki at the NR2B receptor high affinity site) | Compound | cumulated score of catalepsy over 360 mins ([1]; 3 mg/kg p.o.) | cumulated score of catalepsy over 360 mins ([1]; 10 mg/kg p.o.) | number of rats showing tonic convulsions, change vs vehicle controls [2] | latency to clonic convulsions, change vs vehicle controls ([2]; rats) | latency to death, change vs vehicle controls ([2]; rats) | latency to tonic convulsions, change vs vehicle controls ([2]; rats) | number of deaths, change vs vehicle controls ([2]; rats) | hERG @ 10 μM (%) (hERG channel) | electroconvulsive threshold, pro-/anticonvulsant activity [3]
1 | 97% | > 10 µM | 41% | 37% | 0.0148 µM | 0.0148 µM | 0.0148 µM | 0.00234 µM | O=C(OCc1ccc(Cl)cc1)N1CC[C@H](CNc2nccn3cnnc23)C(F)(F)C1 [Compound E1-1.3, R-4-chlorobenzyl 4-(([1,2,4]triazolo[4,3-a]pyrazin-8-ylamino)methyl)-3,3-difluoropiperidine-1-carboxylate] | – | – | – | – | – | – | – | 19% | –
2 | 98% | > 10 µM | 49% | 97% | 0.0144 µM | 0.0144 µM | 0.0144 µM | – | Cc1ccc(COC(=O)N2CC[C@H](CNc3cnccn3)C(F)(F)C2)cc1 [Compound E1-21.2, R-4-methylbenzyl 3,3-difluoro-4-((pyrazin-2-ylamino)methyl)piperidine-1-carboxylate] | – | – | – | – | – | – | – | 27% | –

Row | Compound | displacement of [3H] (E)-N1-(2-methoxybenzyl)-cinnamidine at the NR2B receptor high affinity site (NR2B receptor) | IC50 (human NR1/NR2A) | partial effect on [3H] MK-801 binding (NMDA receptor) | CYP2D6 @ 10 μM (%) (CYP2D6) | IC50 (human NR1/NR2B; [4]) | IC50 (human NR1/NR2B; Table 2.2) | IC50 (human NR1/NR2B; Table 2.3) | Ki (NR2B receptor; read-out: Ki at the NR2B receptor high affinity site) | cumulated score of catalepsy over 360 mins ([1]; 3 mg/kg p.o.) | cumulated score of catalepsy over 360 mins ([1]; 10 mg/kg p.o.) | number of rats showing tonic convulsions, change vs vehicle controls [2] | latency to clonic convulsions, change vs vehicle controls ([2]; rats) | latency to death, change vs vehicle controls ([2]; rats) | latency to tonic convulsions, change vs vehicle controls ([2]; rats) | number of deaths, change vs vehicle controls ([2]; rats) | hERG @ 10 μM (%) (hERG channel) | electroconvulsive threshold, pro-/anticonvulsant activity [3]
3 | Cc1ccc(COC(=O)N2CC[C@H](CNc3cnc(C)cn3)C(F)(F)C2)cc1 [Compound E1-21.26, R-4-methylbenzyl 3,3-difluoro-4-((5-methylpyrazin-2-ylamino)-methyl)piperidine-1-carboxylate] | 99% | > 10 µM | 41% | 32% | 0.0387 µM | 0.0387 µM | 0.0387 µM | – | 11.7 | 1.0 | −82% | +45% | +31% | +40% | −82% | 39% | anticonvulsant activity
